# According to patent US6573274B1, “Sulfonamide compounds and uses thereof as medicines” (Fujisawa Pharmaceutical Co. Ltd., priority 1998, dated 2003):
# Counter-ions that a name gives are not always drawn.
row,Structure (SMILES),melting point
1,"CCCCCS(=O)(=O)NC(=O)c1ccc2nc(C)n(Cc3ccc(N(CC)C(=O)OC(C)(C)C)cc3Cl)c2n1 [Example 72, 3-[4-(N-(tert-butoxycarbonyl)-N-ethylamino)-2-chlorobenzyl]-2-methyl-5-(1-pentanesulfonylcarbamoyl)-3H-imidazo[4,5-b]pyridine]",131 to 132 °C
2,"CCC/C=C/S(=O)(=O)NC(=O)c1ccc2nc(C)n(Cc3ccc(NC(=O)OCC)cc3Cl)c2n1 [Example 114, 3-(4-ethoxycarbonylamino-2-chlorobenzyl)-2-methyl-5-((E)-1-penten-1-ylsulfonylcarbamoyl)-3H-imidazo[4,5-b]pyridine]",233 to 234 °C
3,Cc1cc(C(=O)NS(=O)(=O)c2ccc(Br)s2)nc2c1nc(C)n2Cc1ccc(-c2ccccc2)cc1Cl.[Na],> 250 °C
4,"CCCCCS(=O)(=O)NC(=O)c1ccc2nc(C)n(Cc3ccc(N(C)C(=O)OC(C)C)cc3Cl)c2n1 [Example 96, 3-(2-chloro-4-(N-methyl-N-(isopropoxycarbonyl)amino)benzyl)-2-methyl-5-(1-pentanesulfonylcarbamoyl)-3H-imidazo[4,5-b]pyridine]",151 to 152 °C
5,"CCC/C=C/S(=O)(=O)NC(=O)c1ccc2nc(C)n(Cc3ncc(NC(=O)OC(C)(C)C)cc3Cl)c2n1 (as salt: sodium) [Example 130, 3-[(5-(N-(tert-butoxycarbonyl)amino)-3-chloropyridin-2-yl)methyl]-2-methyl-5-((E)-1-penten-1-ylsulfonylcarbamoyl)-3H-imidazo[4,5-b]pyridine]",202 to 204 °C
6,"CCCCCS(=O)(=O)NC(=O)c1ccc2nc(C)n(Cc3ccc(N(C)CCC)cc3Cl)c2n1 [Example 44, 3-(2-chloro-4-(methyl-(1-propyl)amino)benzyl)-2-methyl-5-(1-pentanesulfonylcarbamoyl)-3H-imidazo[4,5-b]pyridine]",129 to 130 °C
7,"CCCCCS(=O)(=O)NC(=O)c1ccc2nc(C)n(Cc3ccc(N(C)C(=O)OCC)cc3Cl)c2n1 [Example 145, 3-(4-(N-(ethoxycarbonyl)-N-methylamino)-2-chlorobenzyl)-2-methyl-5-(1-pentanesulfonylcarbamoyl)-3H-imidazo[4,5-b]pyridine]",149 to 150 °C
8,"CCCCS(=O)(=O)NC(=O)c1ccc2nc(CC)n(Cc3ccc(OCC4CCCCC4)cc3Cl)c2n1 [Example 67, 5-(1-butanesulfonylcarbamoyl)-3-(2-chloro-4-(cyclohexylmethyloxy)benzyl)-2-ethyl-3H-imidazo[4,5-b]pyridine]",145 to 146 °C
9,"CCCCCOc1ccc(Cn2c(C)nc3ccc(C(=O)NS(=O)(=O)CCCC)nc32)c(Cl)c1 [Example 21, 5-(1-butanesulfonylcarbamoyl)-3-(2-chloro-4-(1-pentyloxy)benzyl)-2-methyl-3H-imidazo[4,5-b]pyridine]",145 to 146 °C
10,"CCCCNS(=O)(=O)NC(=O)c1ccc2nc(C)n(Cc3ccc(OCC)cc3Cl)c2n1 [Example 11, 5-((1-butylaminosulfonyl)carbamoyl)-3-(2-chloro-4-ethoxybenzyl)-2-methyl-3H-imidazo[4,5-b]pyridine]",175 to 177 °C
11,CCCCCS(=O)(=O)NC(=O)c1cc(C)c2nc(C)n(Cc3ccc(C#Cc4ccccc4)cc3Cl)c2n1.[Na],175 to 178 °C
12,"CCCCCS(=O)(=O)NC(=O)c1ccc2nc(C)n(Cc3ncc(NC(=O)OCC)cc3Cl)c2n1 [Example 132, 3-[(3-chloro-5-(N-(ethoxycarbonyl)amino)pyridin-2-yl)methyl]-2-methyl-5-(1-pentanesulfonylcarbamoyl)-3H-imidazo[4,5-b]pyridine]",232 to 233 °C
13,"CCCCCOc1ccc(Cn2c(C)nc3ccc(C(=O)NS(=O)(=O)NCCC)nc32)c(Cl)c1 [Example 25, 5-((1-propylaminosulfonyl)carbamoyl)-3-(2-chloro-4-(1-pentyloxy)benzyl)-2-methyl-3H-imidazo[4,5-b]pyridine]",155 to 158 °C
14,"CCCNS(=O)(=O)NC(=O)c1ccc2nc(C)n(Cc3ccc(-c4ccccc4)cc3Cl)c2n1 [Example 60, 3-(2-chloro-4-phenylbenzyl)-2-methyl-5-[(1-propylaminosulfonyl)carbamoyl]-3H-imidazo[4,5-b]pyridine]",208 to 209 °C
15,"CCC/C=C/S(=O)(=O)NC(=O)c1ccc2nc(C)n(Cc3ncc(NC(=O)OC(C)C)cc3Cl)c2n1 [Example 136, 3-[(5-(N-(isopropoxycarbonyl)amino)-3-chloropyridin-2-yl)methyl]-2-methyl-5-((E)-1-penten-1-ylsulfonylcarbamoyl)-3H-imidazo[4,5-b]pyridine]",242 to 244 °C
16,"CCCCCS(=O)(=O)NC(=O)c1ccc2nc(C)n(Cc3ccc(N(C)CC)cc3Cl)c2n1 [Example 43, 3-(2-chloro-4-(ethylmethylamino)benzyl)-2-methyl-5-(1-pentanesulfonylcarbamoyl)-3H-imidazo[4,5-b]pyridine]",148 to 149 °C
17,"CCCCCS(=O)(=O)NC(=O)c1ccc2nc(C)n(Cc3ccc(-c4ccco4)cc3Cl)c2n1 [Example 70, 3-[2-chloro-4-(2-furyl)benzyl]-2-methyl-5-(1-pentanesulfonylcarbamoyl)-3H-imidazo[4,5-b]pyridine]",184 to 185 °C

row,Structure (SMILES),melting point
1,"CCCCCS(=O)(=O)NC(=O)c1cc(C)c2nc(C)n(Cc3ccc(-c4ccco4)cc3Cl)c2n1 [Example 86, 3-[2-chloro-4-(2-furyl)benzyl]-2,7-dimethyl-5-(1-pentanesulfonylcarbamoyl)-3H-imidazo[4,5-b]pyridine]",177 to 178 °C
2,"CCCCCOc1ccc(Cn2c(C)nc3ccc(C(=O)NS(=O)(=O)CCCCC)nc32)c(Cl)c1 [Example 20, 3-(2-chloro-4-(1-pentyloxy)benzyl)-2-methyl-5-(1-pentanesulfonylcarbamoyl)-3H-imidazo[4,5-b]pyridine]",128 to 131 °C
3,"CCCCCS(=O)(=O)NC(=O)c1ccc2nc(C)n(Cc3ccc(N(C)CC4CCCCC4)cc3Cl)c2n1 [Example 53, 3-(2-chloro-4-(N-(cyclohexylmethyl)methylamino)benzyl)-2-methyl-5-(1-pentanesulfonylcarbamoyl)-3H-imidazo[4,5-b]pyridine]",169 to 170 °C
4,"CCCCCS(=O)(=O)NC(=O)c1ccc2nc(C)n(Cc3ccc(OC)cc3Cl)c2n1 [Example 5, 3-(2-chloro-4-methoxybenzyl)-2-methyl-5-(1-pentanesulfonylcarbamoyl)-3H-imidazo[4,5-b]pyridine]",188 to 189 °C
5,"CCCCOc1ccc(Cn2c(C)nc3ccc(C(=O)NS(=O)(=O)CCCC)nc32)c(Cl)c1 [Example 18, 5-(1-butanesulfonylcarbamoyl)-3-(2-chloro-4-(1-butoxy)benzyl)-2-methyl-3H-imidazo[4,5-b]pyridine]",144 to 145 °C
6,"CCCCCOc1ccc(Cn2c(C)nc3ccc(C(=O)NS(=O)(=O)NCCCC)nc32)c(Cl)c1 [Example 26, 5-((1-butylaminosulfonyl)carbamoyl)-3-(2-chloro-4-(1-pentyloxy)benzyl)-2-methyl-3H-imidazo[4,5-b]pyridine]",136 to 138 °C
7,"CCCCS(=O)(=O)NC(=O)c1cc(C)c2nc(C)n(Cc3ccc(-c4ccco4)cc3Cl)c2n1 [Example 88, 3-[2-chloro-4-(2-furyl)benzyl]-2,7-dimethyl-5-(1-butanesulfonylcarbamoyl)-3H-imidazo[4,5-b]pyridine]",231 to 233 °C
8,"CCCCCS(=O)(=O)NC(=O)c1cc(C)c2nc(C)n(Cc3ccc(N(C)C(=O)OC(C)(C)C)cc3Cl)c2n1 [Example 77, 3-(4-(N-(tert-butoxycarbonyl)-N-methylamino)-2-chlorobenzyl)-2,7-dimethyl-5-(1-pentanesulfonylcarbamoyl)-3H-imidazo[4,5-b]pyridine]",193 to 194 °C
9,"CCCCCS(=O)(=O)NC(=O)c1ccc2nc(C)n(Cc3ccc(N(C)C(=O)C(C)(C)C)cc3Cl)c2n1 [Example 64, 3-(2-chloro-4-(methyl(pivaloyl)amino)benzyl)-2-methyl-5-(1-pentanesulfonylcarbamoyl)-3H-imidazo[4,5-b]pyridine]",207 to 208 °C
10,"CCCCCOc1ccc(Cn2c(CC)nc3ccc(C(=O)NS(=O)(=O)CCCC)nc32)c(Cl)c1 [Example 66, 5-(1-butanesulfonylcarbamoyl)-3-(2-chloro-4-(1-pentyloxy)benzyl)-2-ethyl-3H-imidazo[4,5-b]pyridine]",140 to 142 °C
11,"CCCCCS(=O)(=O)NC(=O)c1ccc2nc(C)n(Cc3ccc(OCC)cc3Cl)c2n1 [Example 8, 3-(2-chloro-4-ethoxybenzyl)-2-methyl-5-(1-pentanesulfonylcarbamoyl)-3H-imidazo[4,5-b]pyridine]",165 to 166 °C
12,"CCCCS(=O)(=O)NC(=O)c1ccc2nc(C)n(Cc3ccc(OCCC)cc3Cl)c2n1 [Example 13, 5-(1-butanesulfonylcarbamoyl)-3-(2-chloro-4-(1-propoxy)benzyl)-2-methyl-3H-imidazo[4,5-b]pyridine]",153 to 154 °C
13,"CCCCCOc1ccc(Cn2c(C)nc3c(C)cc(C(=O)NS(=O)(=O)CCCCC)nc32)c(Cl)c1 [Example 38, 3-[2-chloro-4-(1-pentyloxy)benzyl]-2,7-dimethyl-5-(1-pentanesulfonylcarbamoyl)-3H-imidazo[4,5-b]pyridine]",149 to 150 °C
14,"CCCCS(=O)(=O)NC(=O)c1ccc2nc(C)n(Cc3ccc(OC(C)C)cc3Cl)c2n1 [Example 15, 5-(1-butanesulfonylcarbamoyl)-3-(2-chloro-4-isopropoxybenzyl)-2-methyl-3H-imidazo-[4,5-b]pyridine]",138 to 141 °C
15,"CCCCS(=O)(=O)NC(=O)c1ccc2nc(C)n(Cc3ccc(OCC4CCCC4)cc3Cl)c2n1 [Example 28, 5-(1-butanesulfonylcarbamoyl)-3-(2-chloro-4-((cyclopentylmethyl)oxy)benzyl)-2-methyl-3H-imidazo[4,5-b]pyridine]",180 to 181 °C
16,"CCCCCS(=O)(=O)NC(=O)c1ccc2nc(CC)n(Cc3ccc(OCC4CCCCC4)cc3Cl)c2n1 [Example 68, 3-(2-chloro-4-(cyclohexylmethyloxy)benzyl)-2-ethyl-5-(1-pentanesulfonylcarbamoyl)-3H-imidazo[4,5-b]pyridine]",137 to 139 °C
